Experimental findings from ChEMBL document CHEMBL1201862, “PubChem BioAssay data set” (2004) are described below.

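Values below derive from 48-hour exposures of cells grown in 96-well plates, with endpoints linearly interpolated between the two concentrations bracketing the appropriate inhibition level. At the GI50, growth is halved.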 Activity calls are given as the source filed them. No stated cut-off is given here; in the data, active = GI50 up to about 1.1 µM and inactive = higher.

Among the test systems are SF-268; HT-29; CCRF-CEM; SNB-19; SK-MEL-2; PC-3; SK-MEL-28; HCT-116; NCI-H226; MDA-MB-231; A549; Hs-578T; DU-145; NCI/ADR-RES; EKVX; IGROV-1; MOLT-4; K562; RPMI-8226; MCF7.
Holding throughout (assay): NCI tumour cell line growth inhibition, 48 h

In the case of `C[C@@H](c1ccccc1)n1c(N)c(-c2ccccn2)c2ccc([N+](=O)[O-])cc2c1=O`, the GI50 in the test on SF-268 is > 100 µM (inactive); in the test with HT-29, > 100 µM (inactive); in the test with CCRF-CEM it was 32.1 µM (inactive); in the test on SNB-19, 35.2 µM (inactive); with SK-MEL-2, > 100 µM (inactive); with PC-3 it was 17.5 µM (inactive). In addition, the GI50 in the test with SK-MEL-28 was > 100 µM (inactive); with HCT-116, 79.4 µM (inactive); in the test on NCI-H226, 36.6 µM (inactive); in the test on MDA-MB-231, 86.3 µM (inactive); with A549, 34.9 µM (inactive); with Hs-578T it was 26.9 µM (inactive). Also, the GI50 is 31.8 µM (inactive) in the test with DU-145 and 26.9 µM (inactive) in the test with NCI/ADR-RES.

For `c1ccc2c(c1)N[C@@H]1c3[nH]c4ccccc4c3CC[C@H]21`, the GI50 in the test on SF-268 is 22.4 µM (inactive); in the test with HT-29, 15.6 µM (inactive); with CCRF-CEM it was 15 µM (inactive); with SNB-19, 17.6 µM (inactive); in the test with SK-MEL-2, 13.9 µM (inactive); in the test with EKVX it was 13.5 µM (inactive). The GI50 was 11.9 µM (inactive) in the test on PC-3; 18.5 µM (inactive) in the test on SK-MEL-28; 3.95 µM (inactive) with IGROV-1; 14.7 µM (inactive) with HCT-116; 12.5 µM (inactive) with NCI-H226; 15.5 µM (inactive) in the test on MDA-MB-231. In addition, the GI50 in the test on MOLT-4 was 13.9 µM (inactive); with A549 it was 18.3 µM (inactive); in the test on Hs-578T it was 10.2 µM (inactive); with DU-145, 16.9 µM (inactive); in the test with NCI/ADR-RES it was 13.6 µM (inactive); in the test with K562, 14 µM (inactive). For the same compound, in the test with RPMI-8226, the GI50 was 14.7 µM (inactive).

Turning to `C=CC/C=C/Cc1csc(C(C)(C)C(O)C/C=C/C(=C)CCNC(=O)OC)n1` (stereo not drawn), the GI50 was 80.4 µM (inactive) in the test with SF-268; 48.8 µM (inactive) in the test on HT-29; 34.9 µM (inactive) in the test on CCRF-CEM; > 100 µM (inactive) in the test with SNB-19; > 100 µM (inactive) in the test on SK-MEL-2; 27.9 µM (inactive) in the test on EKVX. The GI50 with PC-3 was > 100 µM (inactive); with SK-MEL-28, > 87.1 µM (inactive); in the test with IGROV-1 it was 28.4 µM (inactive); in the test with HCT-116 it was 0.679 µM (active); with NCI-H226, > 100 µM (inactive); in the test on MCF7 it was 96.2 µM (inactive). Moreover, the GI50 was 36.1 µM (inactive) in the test on MOLT-4; 41.4 µM (inactive) with A549; > 100 µM (inactive) in the test on Hs-578T; > 100 µM (inactive) with DU-145; 75.7 µM (inactive) in the test on NCI/ADR-RES; 0.845 µM (active) with K562. The GI50 with RPMI-8226 was 30.7 µM (inactive).

For `Cc1nn(C(=O)Cc2ccccc2)c2c1C(c1ccccc1O)SC(=N)N2` (stereo not drawn), the GI50 in the test with SF-268, in the test on HT-29, in the test on CCRF-CEM, in the test on SNB-19, in the test with EKVX and in the test with PC-3 was > 100 µM (inactive) each time. Moreover, the GI50 with SK-MEL-28, in the test on IGROV-1, with HCT-116, with NCI-H226, with MDA-MB-231 and in the test with MCF7 was > 100 µM (inactive) in each case. The GI50 with MOLT-4, in the test on A549, in the test with Hs-578T, in the test with DU-145, in the test with K562 and with RPMI-8226 was > 100 µM (inactive) throughout.

With `COc1ccc2c(c1)/C(=C\c1c(Cl)nc3n1CCS3)C(=O)N2`, the GI50 is 13.8 µM (inactive) with SF-268; 3.25 µM (inactive) with HT-29; 6.31 µM (inactive) in the test on CCRF-CEM; 14.6 µM (inactive) in the test on SNB-19; 18.3 µM (inactive) in the test on EKVX; 3.36 µM (inactive) in the test on PC-3. Further, the GI50 was 18.7 µM (inactive) with SK-MEL-28; 7.28 µM (inactive) with IGROV-1; 3.73 µM (inactive) in the test on HCT-116; 5.14 µM (inactive) with MDA-MB-231; 4.42 µM (inactive) with MCF7; 4.01 µM (inactive) in the test with MOLT-4. For the same compound, the GI50 was 5.62 µM (inactive) with A549; 11.2 µM (inactive) in the test on Hs-578T; 11.8 µM (inactive) with DU-145; 4.48 µM (inactive) in the test with NCI/ADR-RES; 3.02 µM (inactive) in the test with K562; 4.03 µM (inactive) in the test on RPMI-8226.

Turning to `Cc1cc2c(c3oc(C4(C)OC4C4OC4C)cc(=O)c13)C(=O)c1c(O)c(C3CC(C)(N(C)C)C(O)C(C)O3)cc(C3CC(N(C)C)C(O)C(C)O3)c1C2=O` (stereo not drawn), the GI50 in the test on SF-268 is 2.5e-05 µM (active); in the test on HT-29 it was 0.000175 µM (active); in the test on CCRF-CEM, 0.0025 µM (active); in the test with SNB-19, 0.0025 µM (active); with PC-3, 6.52e-05 µM (active); in the test with IGROV-1, 0.000951 µM (active). Also, the GI50 was 1.54e-05 µM (active) in the test with HCT-116; 0.000227 µM (active) with MDA-MB-231; 2.49e-05 µM (active) with MCF7; 0.0025 µM (active) in the test on MOLT-4; 0.0025 µM (active) in the test with A549; 0.000349 µM (active) in the test with Hs-578T. In addition, the GI50 in the test on DU-145 was 6.85e-05 µM (active); in the test on NCI/ADR-RES, 0.000118 µM (active); in the test on K562 it was 0.0025 µM (active); in the test on RPMI-8226, 0.000271 µM (active).

`Cc1cccc(C)c1NC(=O)/C(Cl)=C(/Cl)C(=O)O`: the GI50 with SF-268 is 17.2 µM (inactive); in the test on HT-29, 17.5 µM (inactive); with CCRF-CEM, 2.95 µM (inactive); in the test with SNB-19 it was 24.5 µM (inactive); in the test on SK-MEL-2 it was 16.7 µM (inactive); in the test on EKVX, 19.5 µM (inactive). In addition, the GI50 in the test on PC-3 is 19.8 µM (inactive); in the test with SK-MEL-28, 18.3 µM (inactive); in the test with IGROV-1 it was 20.8 µM (inactive); in the test on HCT-116, 21.1 µM (inactive); in the test on NCI-H226 it was 16.4 µM (inactive); with MDA-MB-231, 21.3 µM (inactive). Besides, the GI50 was 20.8 µM (inactive) with MCF7; 3.99 µM (inactive) with MOLT-4; 20.7 µM (inactive) in the test on A549; 33.3 µM (inactive) in the test on Hs-578T; 26.5 µM (inactive) with DU-145; 3.23 µM (inactive) with K562. The GI50 in the test with RPMI-8226 was 11 µM (inactive).

As to `c1ccc(/N=C(/Nc2ccccc2)N2CCCCC2)cc1`, the GI50 in the test with SF-268 is > 100 µM (inactive); in the test with HT-29 it was 39.6 µM (inactive); with CCRF-CEM, > 100 µM (inactive); in the test with SNB-19, > 100 µM (inactive); with SK-MEL-2 it was > 100 µM (inactive); in the test with EKVX it was > 100 µM (inactive). Besides, the GI50 with PC-3 was 80.2 µM (inactive); in the test with SK-MEL-28, 74 µM (inactive); with IGROV-1, 93.5 µM (inactive); with HCT-116, 38.6 µM (inactive); with NCI-H226, > 100 µM (inactive); with MCF7, 68.7 µM (inactive). Besides, the GI50 with MOLT-4 is 51.5 µM (inactive); in the test on A549, > 100 µM (inactive); in the test with Hs-578T, 18.7 µM (inactive); in the test on DU-145, > 10 µM (inactive); with NCI/ADR-RES, > 100 µM (inactive); with K562, 40 µM (inactive). In the test on RPMI-8226, the GI50 was 97.9 µM (inactive).

Turning to `Cc1ccc(Nc2cc(=O)[nH]c(=O)[nH]2)cc1CS`, the GI50 is 61.4 µM (inactive) in the test with SF-268; > 100 µM (inactive) in the test on HT-29; > 100 µM (inactive) in the test on CCRF-CEM; > 100 µM (inactive) in the test on SNB-19; > 100 µM (inactive) with SK-MEL-2; > 100 µM (inactive) in the test with EKVX. For the same compound, the GI50 in the test with PC-3, in the test on SK-MEL-28, in the test with IGROV-1, with HCT-116, in the test on NCI-H226 and in the test with MDA-MB-231 was > 100 µM (inactive) in each case. In addition, the GI50 in the test on MOLT-4, in the test with A549, in the test on Hs-578T, in the test with NCI/ADR-RES, in the test on K562 and in the test with RPMI-8226 was > 100 µM (inactive) throughout.

On to `Clc1ccc2ns[s+]c2c1`, for which the GI50 in the test on SF-268 was 11.3 µM (inactive); in the test with HT-29 it was 3.39 µM (inactive); with CCRF-CEM it was 1.27 µM (inactive); in the test on SNB-19, 29.2 µM (inactive); in the test with SK-MEL-2, 9.35 µM (inactive); in the test on EKVX, 17.7 µM (inactive). Also, the GI50 is 0.847 µM (active) in the test on PC-3; 17.7 µM (inactive) in the test on SK-MEL-28; 40.3 µM (inactive) in the test on IGROV-1; 1.03 µM (active) in the test on HCT-116; > 89.7 µM (inactive) in the test on NCI-H226; 25.3 µM (inactive) in the test with MDA-MB-231. Moreover, the GI50 in the test with MCF7 was 3.33 µM (inactive); in the test with MOLT-4, 1.71 µM (inactive); in the test on A549 it was 5.24 µM (inactive); in the test with Hs-578T it was 78 µM (inactive); with DU-145, 8.79 µM (inactive); with K562, 0.0611 µM (active). In addition, the GI50 with RPMI-8226 was 1.81 µM (inactive).

With `CC1OC(OC2C[C@](O)(C(=O)CF)Cc3c(O)c4c(c(O)c32)C(=O)c2ccccc2C4=O)CC(N)C1O` (stereo partly drawn), the GI50 was 0.0255 µM (active) in the test with SF-268; < 0.0156 µM (active) in the test on HT-29; < 0.01 µM (active) in the test with CCRF-CEM; < 0.014 µM (active) with SNB-19; 0.168 µM (active) in the test on SK-MEL-2; 0.507 µM (active) with EKVX. Moreover, the GI50 in the test with PC-3 was 0.0275 µM (active); with SK-MEL-28, 0.177 µM (active); with IGROV-1, 0.0877 µM (active); with HCT-116, < 0.01 µM (active); in the test with NCI-H226 it was < 0.01 µM (active); in the test with MDA-MB-231, 0.043 µM (active). Besides, the GI50 in the test with MCF7 is < 0.01 µM (active); with MOLT-4, < 0.01 µM (active); with A549, < 0.01 µM (active); with Hs-578T it was 0.0103 µM (active); in the test with DU-145 it was < 0.01 µM (active); in the test on K562, < 0.0153 µM (active). In addition, the GI50 in the test on RPMI-8226 is < 0.01 µM (active).
